Experimental findings from PMC4822259 (Parasites & Vectors, 2016) are described below.

Format in all cases: cell-based
In one assay the target is T1, CqDOP2 (Culex quinquefasciatus, UniProt A0A0B5H0X6).
T1 construct: gene DOP2; receptor expressed in HEK-293 cells, from authors' previous work
T1 sequence (A0A0B5H0X6 1-479): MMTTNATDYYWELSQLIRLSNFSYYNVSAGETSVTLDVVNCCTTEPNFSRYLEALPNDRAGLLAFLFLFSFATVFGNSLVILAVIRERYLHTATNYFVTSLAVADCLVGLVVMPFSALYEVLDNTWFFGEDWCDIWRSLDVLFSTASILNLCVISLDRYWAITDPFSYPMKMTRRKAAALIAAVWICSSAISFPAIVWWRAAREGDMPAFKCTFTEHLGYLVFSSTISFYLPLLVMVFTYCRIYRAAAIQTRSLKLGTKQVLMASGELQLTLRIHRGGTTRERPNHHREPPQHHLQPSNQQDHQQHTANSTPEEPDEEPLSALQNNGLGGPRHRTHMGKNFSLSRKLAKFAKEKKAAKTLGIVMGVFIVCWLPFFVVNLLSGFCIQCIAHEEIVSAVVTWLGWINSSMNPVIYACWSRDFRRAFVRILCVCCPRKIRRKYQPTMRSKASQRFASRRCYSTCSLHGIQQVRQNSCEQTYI
In words: IP-One HTRF IP1 accumulation, inhibition of dopamine response, HEK-293.

Another assay deals with T2, AaDOP2 (Aedes aegypti, UniProt H6D5H2).
T2 construct: gene dop2; receptor expressed in HEK-293 cells, from authors' previous work
T2 sequence (H6D5H2 1-476): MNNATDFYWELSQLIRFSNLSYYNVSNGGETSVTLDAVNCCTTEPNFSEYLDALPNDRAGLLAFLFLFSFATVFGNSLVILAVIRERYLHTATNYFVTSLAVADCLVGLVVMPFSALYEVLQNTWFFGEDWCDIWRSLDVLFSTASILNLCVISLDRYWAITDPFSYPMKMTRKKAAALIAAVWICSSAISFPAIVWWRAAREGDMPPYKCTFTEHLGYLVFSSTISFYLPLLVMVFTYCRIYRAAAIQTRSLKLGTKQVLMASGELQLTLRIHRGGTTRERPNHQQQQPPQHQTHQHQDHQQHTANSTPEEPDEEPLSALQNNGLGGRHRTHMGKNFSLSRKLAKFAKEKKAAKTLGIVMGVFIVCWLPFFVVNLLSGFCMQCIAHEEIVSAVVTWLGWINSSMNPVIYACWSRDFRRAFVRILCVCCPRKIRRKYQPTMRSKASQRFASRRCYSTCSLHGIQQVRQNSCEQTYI
Described as above.

For assay [1], the target named is T3, AgDOP2 (Anopheles gambiae, UniProt A0A1W5KQ45).
T3 sequence (A0A1W5KQ45 1-495): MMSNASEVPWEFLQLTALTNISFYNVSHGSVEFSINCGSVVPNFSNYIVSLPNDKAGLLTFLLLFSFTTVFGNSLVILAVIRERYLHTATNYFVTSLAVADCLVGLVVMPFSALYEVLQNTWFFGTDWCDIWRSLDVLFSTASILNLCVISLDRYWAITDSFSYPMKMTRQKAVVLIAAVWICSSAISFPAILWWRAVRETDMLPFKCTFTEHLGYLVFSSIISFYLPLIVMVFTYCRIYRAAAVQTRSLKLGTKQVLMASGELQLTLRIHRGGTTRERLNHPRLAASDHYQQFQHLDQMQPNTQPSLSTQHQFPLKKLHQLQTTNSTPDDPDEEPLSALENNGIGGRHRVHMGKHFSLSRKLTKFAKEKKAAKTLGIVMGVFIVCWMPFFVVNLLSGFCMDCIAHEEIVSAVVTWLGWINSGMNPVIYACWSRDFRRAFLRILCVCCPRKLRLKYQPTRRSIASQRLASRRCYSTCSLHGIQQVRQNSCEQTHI
The assay is described as above.

Assay [2] has as its target T3, AgDOP2. In words: IP-One HTRF IP1 accumulation, agonist stimulation, HEK-293.

On to `CN1CCc2cc(Cl)c(O)cc2[C@@H](c2ccccc2)C1` [SCH23390], for which the IC50 against CqDOP2 amounted to 8300 ± 1000 nM; against AaDOP2, 4700 ± 800 nM; at AgDOP2 [1], 3600 ± 800 nM.
In the same order, the values of `CN1CC2c3ccccc3Oc3ccc(Cl)cc3C2C1` (stereo not drawn) [Asenapine] are 20 ± 4 nM, 3 ± 0.5 nM and 0.7 ± 0.08 nM.
With `NCCc1ccc(O)c(O)c1` [dopamine], on AgDOP2 [2], the EC50 stood at 4700 ± 400 nM.
Consider `CCNC(=O)N1CCN(CCCC(c2ccc(F)cc2)c2ccc(F)cc2)CC1` [Amperozide], for which the IC50 on CqDOP2 is 2600 ± 600 nM; against AaDOP2, 5100 ± 1000 nM; against AgDOP2 [1], 18800 ± 11000 nM.
For `CN(C)CCC=C1c2ccccc2CCc2ccccc21` [Amitriptyline], the IC50 on CqDOP2 turned out to be 80 ± 7 nM; at AaDOP2 it was 50 ± 3 nM; on AgDOP2 [1], 230 ± 20 nM.
As to `CN(C)CC/C=C1/c2ccccc2Sc2ccc(Cl)cc21` [Chlorprothixene], the IC50 was found to be 10 ± 2 nM at CqDOP2 and 400 ± 7 nM on AgDOP2 [1].
As for `CSc1ccc2c(c1)C(N1CCN(C)CC1)Cc1ccccc1S2` (stereo not drawn) [Methiothepin], the values for the IC50 against CqDOP2, on AaDOP2 and on AgDOP2 [1] were 10 ± 5 nM, 3 ± 1 nM and 140 ± 8 nM, respectively.
